In US20070082841A1, “Ocular administration of immunosuppressive agents” (Aciont, Inc., priority 2005, published 2007):

Assay: Ocular iontophoretic delivery of MPA in rabbits; amounts in eye tissues by HPLC
Type: in vivo, New Zealand white rabbits
Settings: rabbit eye; iontophoresis 3 mA for 20 minutes, 20 μL of 0.6 M MPA in 1% agarose gel, 0.07 cm^2; 15 minutes after delivery
Description: Three New Zealand white rabbits were each fitted with ocular iontophoretic device on one eye. Each device contained 20 μL of 0.6 M mycophenolic acid (MPA) in 1% agarose gel. A vacuum was provided between the eyes of the rabbits and the ocular iontophoretic device by withdrawing 0.2 cc from the space therebetween. MPA was iontophoretically delivered from the cathodes of the devices on the conjunctiva/sclera near the limbus and the upper eyelid using constant current control from standard iontophoretic dose controller. The MPA was iontophoretically delivered through a surface area of 0.07 cm^2 at 3 mA for 20 minutes. The anode electrode was attached on the rabbit's ear, opposite the treatment eye. Rabbits were euthanized at 15 minutes following completion of the iontophoretic delivery. Treatment eyes were dissected and the amounts of MPA in the conjunctiva, sclera, retina, and vitreous were determined using HPLC assay.

- MPA Amount, Conjunctiva: 30.45 µg
- MPA Amount, Retina: 1.60 µg
- MPA Amount, Sclera: 20.65 µg
- MPA Amount, Total (combined total for all of the dissections): 60.75 µg
- MPA Amount, Vitreous: 2.45 µg
SMILES: COc1c(C)c2c(c(O)c1C/C=C(\C)CCC(=O)O)C(=O)OC2 [MPA, mycophenolic acid]
